Several values for one entry are separate records, joined by “and”; a condition that tells them apart may be missing. Equal values may be shown once. Read-outs that look alike come from different tables or passages of the source.
What was measured:
[1] = system: Scn2a^Q54 mice; experiment: Anticonvulsant activity: behavioral seizure frequency in Scn2a^Q54 mice; assay type: in vivo, mouse; settings: for reduction in seizure frequency: Scn2a^Q54 mice
[2] = mouse, in vivo
[3] = Plasma and brain concentrations and pharmacokinetics in mice; settings: for concentration at 30 min: male, Scn2a^Q54, mouse, intraperitoneal, 40 mg/kg
[4] = system: hippocampal pyramidal neurons isolated from Scn2a^Q54 mice; assay type: cell-based, mouse; settings: 1 µM; membrane potential clamped to −80 mV
[5] = system: Scn2a^Q54 mice; experiment: Tolerability observations in mice; assay type: in vivo, mouse; settings: phenytoin 30 mg/kg i.p.; GS967 in chow
[6] = system: hippocampal pyramidal neurons isolated from Scn2a^Q54 mice; assay type: cell-based, mouse; settings: 1 µM
[7] = system: C57BL/6J male mice; experiment: Maximal electroshock-induced seizures; assay type: in vivo, mouse; settings: oral gavage two hours prior to testing; probit analysis
[8] = system: Scn2a^Q54 mice; experiment: Survival analysis of Scn2a^Q54 mice; assay type: in vivo, mouse; settings: GS967 chow 1.5 mg/kg/d from postnatal day 21; control 20%
[9] = system: Scn2a^Q54 mice; experiment: Cresyl Violet staining for hilar neuron loss in the dentate gyrus; assay type: in vivo, mouse; settings: GS967 1.5 mg/kg/d from P21-P60; female mice
[10] = system: cardiac ion channels and several other molecular targets (more than 600 studied targets); settings: 1 µM; cited from earlier work

Row | SMILES | reduction in seizure frequency ([1]; ranolazine 40 mg/kg i.p.) | brain penetration [2] | concentration at 30 min ([3]; plasma) [µM] | concentration at 30 min ([3]; whole brain) [µM] | half-life ([3]; mouse, plasma) [min] | reduction of spontaneous action potential firing frequency [4] [%] | sedation [5] | persistent current as % of peak current amplitude ([6]; control 1.2 ± 0.4%) [%] | peak current density ([6]; not significantly different from control) [pA/pF] | reduction in seizure frequency ([1]; GS967 0.375 mg/kg/d orally in chow) [%] | reduction in seizure frequency ([1]; GS967 1.5 mg/kg/d orally in chow, two days of treatment) | % Change in Seizure Frequency ([1]; GS967 1.5 mg/kg/day orally in chow, male Scn2a^Q54 mice) [%] | ED50 for protection against MES-induced tonic hindlimb extension [7] [mg/kg] | mice alive at 12 weeks [8] [%] | hilar neuron loss (Cresyl Violet, qualitative) [9] | cross reactivity with cardiac ion channels and other molecular targets [10] | [Plasma] ([3]; GS967 1.5 mg/kg/day orally in chow, immediately after post-treatment period) [µM] | brain penetration ([3]; mice) | rate of elimination ([3]; mouse, in vivo)
1 | COc1ccccc1OCC(O)CN1CCN(CC(=O)Nc2c(C)cccc2C)CC1 (stereo not drawn) [Ranolazine, reference compound] | ~ 50% and 48% | low brain penetration | 19.3 ± 0.8 | 4.9 ± 0.1 | ~15 |  |  |  |  |  |  |  |  |  |  |  |  |  | 
2 | O=C1NC(=O)C(c2ccccc2)(c2ccccc2)N1 [Phenytoin, reference compound] |  |  |  |  |  | 36.7 ± 10.1 | exhibited sedation characterized by lack of ambulation |  |  |  |  |  |  |  |  |  |  |  | 
3 | FC(F)(F)Oc1ccc(-c2ccc3nnc(C(F)(F)F)n3c2)cc1 [GS967] |  |  |  |  |  | 98.8 ± 0.1 | no sedation was observed | 0.1 ± 0.1 | 172.3 ± 46.2 | 50 | greater than 90% | −92 ± 4 | 0.1 | 90 | no overt hilar neuron loss | no cross reactivity | 0.6 ± 0.1 | effectively cross the blood-brain barrier | slower rate of elimination than ranolazine

Source: publication PMC4126848 (Epilepsia, 2014)
